The source made the active and inactive calls. The rule behind the calls is not given here.
Biological target: Chaperone protein DnaK (Escherichia coli (strain K12)) (UniProt P0A6Y8)
Assay: binders of DnaK substrate-binding domain, biophysical, NMR, chaperone (AID 1033)
Settings: Purified DnaK SBD, NMR ligand binding

Chaperone protein DnaK (Escherichia coli (strain K12)), sequence (P0A6Y8 whole entry, looked up, the tested form may be a part): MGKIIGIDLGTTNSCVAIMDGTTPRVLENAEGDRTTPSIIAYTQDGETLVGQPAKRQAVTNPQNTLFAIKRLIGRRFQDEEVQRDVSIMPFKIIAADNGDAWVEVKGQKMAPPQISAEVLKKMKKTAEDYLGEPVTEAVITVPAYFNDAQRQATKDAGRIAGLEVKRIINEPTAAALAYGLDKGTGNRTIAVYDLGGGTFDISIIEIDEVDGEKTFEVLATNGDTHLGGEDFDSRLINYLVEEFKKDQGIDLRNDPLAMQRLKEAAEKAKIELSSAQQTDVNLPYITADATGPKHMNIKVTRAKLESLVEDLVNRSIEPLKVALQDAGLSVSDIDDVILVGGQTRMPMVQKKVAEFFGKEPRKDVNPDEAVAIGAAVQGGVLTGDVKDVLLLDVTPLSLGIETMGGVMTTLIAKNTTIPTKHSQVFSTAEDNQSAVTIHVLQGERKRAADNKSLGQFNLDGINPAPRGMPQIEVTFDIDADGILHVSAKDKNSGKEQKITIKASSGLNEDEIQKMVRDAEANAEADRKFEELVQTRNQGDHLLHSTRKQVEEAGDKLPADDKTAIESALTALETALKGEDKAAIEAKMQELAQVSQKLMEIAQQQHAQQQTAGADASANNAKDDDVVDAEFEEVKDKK

SMILES: O=[N+]([O-])c1cccc(-c2c[n+](=O)c3c(n2[O-])CCC3)c1
- Kd: > 4 mM (inactive)

SMILES: O=C1CSC(c2ccccc2)N1 (stereo not given)
- Kd: > 4 mM (inactive)

SMILES: CN=C(c1ccc([N+](=O)[O-])cc1)N(C)C
- Kd: > 4 mM (inactive)

SMILES: CSc1nsc(SCc2cnc(C)nc2N)n1
- Kd: > 4 mM (inactive)

SMILES: S=C(Nc1ccc2nccnc2c1)N1CCOCC1
- Kd: > 4 mM (inactive)

SMILES: Nc1nnc(SCc2ccc(F)cc2)s1
- Kd: > 4 mM (inactive)

SMILES: O=C1C2C3C=CC(C3)C2C(=O)N1c1cccnc1 (stereo not given)
- Kd: > 4 mM (inactive)

SMILES: CCCC(=O)N1CCSCC1
- Kd: > 4 mM (inactive)

SMILES: CC(=O)O[C@@H]1CC2C(C)(C)[C@H](O)C=C[C@]2(C)C2CC[C@]3(C)C(=CC(=O)O[C@H]3c3ccoc3)[C@@]21C (stereo not given in full)
- Kd: > 4 mM (inactive)

SMILES: Cc1nc2ccc(C(=O)N3CCSCC3)cc2s1
- Kd: > 4 mM (inactive)

SMILES: O=C(O[C@@H]1Cc2c(O)cc(O)cc2O[C@@H]1c1cc(O)c(O)c(O)c1-c1c([C@H]2Oc3cc(O)cc(O)c3C[C@H]2O)cc(O)c(O)c1O)c1cc(O)c(O)c(O)c1
- Kd: > 4 mM (inactive)

SMILES: CC(C)Oc1ccc(NC(N)=O)cc1
- Kd: > 4 mM (inactive)

SMILES: COc1ccc(-c2ccc(OC)cc2C(=O)O)cc1
- Kd: > 4 mM (inactive)

SMILES: CC(C)Nc1ncnc2c1nnn2C
- Kd: > 4 mM (inactive)

SMILES: COC(=O)c1ccc2nc[nH]c2c1
- Kd: > 4 mM (inactive)

SMILES: O=C1C=CC2=C3c4cc(O)c(O)cc4CC3(O)COC2=C1O (stereo not given)
- Kd: > 4 mM (inactive)

SMILES: CCC(=O)Oc1ccc(N2C(=O)CCC2=O)cc1
- Kd: > 4 mM (inactive)

SMILES: CCN1C(=O)c2c(C)nc3ccccc3c2C1=O
- Kd: > 4 mM (inactive)

SMILES: COc1ccc2c(c1)O[C@@H]1COc3cc(OC)c(OC)cc3[C@@H]1C2=O
- Kd: > 4 mM (inactive)

SMILES: OCc1nccn1Cc1ccccc1
- Kd: > 4 mM (inactive)

SMILES: COC(=O)c1c(C)c2c(c(C)c1O)OC(=O)c1c(C)c(Cl)c(O)c(Cl)c1O2
- Kd: > 4 mM (inactive)

SMILES: CC(=O)c1nnc2cc(C)nn2c1C
- Kd: > 4 mM (inactive)

SMILES: NC[C@H]1O[C@H](O[C@H]2[C@H](O)[C@@H](O[C@H]3O[C@H](CO)[C@@H](O)[C@H](N)[C@H]3O)[C@H](N)C[C@@H]2N)[C@H](N)[C@@H](O)[C@@H]1O
- Kd: > 4 mM (inactive)

SMILES: O=c1c(-c2ccco2)[n+]([O-])c2ccccc2n1O
- Kd: > 4 mM (inactive)

SMILES: O=C(O)/C=C1\NC(=O)c2ccccc21
- Kd: > 4 mM (inactive)

SMILES: CSc1nnc2c(n1)OC=Nc1ccccc1-2
- Kd: > 4 mM (inactive)

SMILES: CC(=O)c1c(C)n(O)c2ccc3nonc3c12
- Kd: > 4 mM (inactive)

SMILES: O=C(Nc1ccc(-c2nnco2)cc1)c1ccccc1
- Kd: > 4 mM (inactive)

SMILES: Cc1cc(C(=O)NC(C)c2ccncc2)cs1 (stereo not given)
- Kd: > 4 mM (inactive)

SMILES: COCCn1c(SC)nc2c1c(=O)[nH]c(=O)n2C
- Kd: > 4 mM (inactive)

SMILES: Cc1cc(N(CN2CCCC2=O)C(=O)c2ccccc2)no1
- Kd: > 4 mM (inactive)

SMILES: COc1cc(-c2nnc(NC(C)=O)o2)cc(OC)c1OC
- Kd: > 4 mM (inactive)

SMILES: CN(C)C(=O)c1ccccc1-c1ccccc1
- Kd: > 4 mM (inactive)

SMILES: C[C@@H]1C(=O)O[C@H]2[C@H]1CC[C@@]1(C)C=CC(=O)[C@@]3(C)O[C@@]213
- Kd: > 4 mM (inactive)

SMILES: O=c1c[n+]([O-])c2ccccc2n1OCc1ccccn1
- Kd: > 4 mM (inactive)

SMILES: CCOC(=O)Cc1cc(=O)n2[nH]c(C)cc2n1
- Kd: > 4 mM (inactive)

SMILES: COC(=O)CCC(C)[C@H]1CCC2C3C(C[C@H](O)[C@@]21C)[C@@]1(C)CC[C@@H](O)C[C@H]1C[C@H]3O (stereo not given in full)
- Kd: > 4 mM (inactive)

SMILES: O=C(O)c1ccnc2ccccc12
- Kd: > 4 mM (inactive)

SMILES: CNC(=O)C(=O)Nc1ccc(F)cc1
- Kd: > 4 mM (inactive)

SMILES: CC(=O)NC(=S)Nc1ccccc1N1CCOCC1
- Kd: > 4 mM (inactive)

SMILES: COc1ccc(NC(=O)N2CCCCC2)cc1
- Kd: > 4 mM (inactive)

SMILES: Cn1c(O)c(C=NCC2CCNCC2)c(=O)n(C)c1=O
- Kd: > 4 mM (inactive)

SMILES: O=c1c(O)c(-c2ccccc2)oc2ccc3occc3c12
- Kd: > 4 mM (inactive)

SMILES: CN1CCCn2c1nc1c2c(=O)[nH]c(=O)n1C
- Kd: > 4 mM (inactive)

SMILES: OC1CC(c2ccccc2)NC2(CCCC2)C1 (stereo not given)
- Kd: > 4 mM (inactive)

SMILES: Cc1noc(C)c1C(=O)NCc1cccs1
- Kd: > 4 mM (inactive)

SMILES: COc1ccccc1NC(=O)c1snnc1C
- Kd: > 4 mM (inactive)

SMILES: CNC(=O)C(=O)Nc1cccc(Cl)c1
- Kd: > 4 mM (inactive)

SMILES: CC(C)=CC(=O)Nc1ccc(S(N)(=O)=O)cc1
- Kd: > 4 mM (inactive)

SMILES: Cc1occc1C(=O)Nc1nnc(C(F)(F)F)s1
- Kd: > 4 mM (inactive)

SMILES: CC(=O)O[C@H]1C[C@@H](OC(C)=O)C(C)(C)C2C[C@@H](OC(C)=O)[C@@]3(C)C4=CC(=O)O[C@@H](c5ccoc5)[C@]4(C)CCC3[C@]21C (stereo not given in full)
- Kd: > 4 mM (inactive)

SMILES: CC(N)C(=O)c1ccco1 (stereo not given)
- Kd: > 4 mM (inactive)

SMILES: CC(C)(C)Cc1nc(-c2ccccn2)no1
- Kd: > 4 mM (inactive)

SMILES: NC(=O)C1CCN(c2ncnc(N)c2[N+](=O)[O-])CC1
- Kd: > 4 mM (inactive)

SMILES: O=c1ccn([C@@H]2O[C@H](COP(=O)(O)OP(=O)(O)OP(=O)(O)O)[C@@H](O)[C@H]2O)c(=O)[nH]1
- Kd: > 4 mM (inactive)

SMILES: O=C1C2CC=CCC2C(=O)N1c1ccccc1 (stereo not given)
- Kd: > 4 mM (inactive)

SMILES: Clc1ncc2[nH]cnc2n1
- Kd: > 4 mM (inactive)

SMILES: CC(=O)Nc1nnc(-c2ccccc2S(C)(=O)=O)o1
- Kd: > 4 mM (inactive)

SMILES: Nc1ccncc1
- Kd: > 4 mM (inactive)

SMILES: CCCNC(=O)CSc1ncccc1C(=O)O
- Kd: > 4 mM (inactive)

SMILES: CC(=O)Nc1c(C#N)c(C(C)(C)C)cn1C
- Kd: > 4 mM (inactive)

SMILES: NC(=O)c1sc2ccccc2c1Cl
- Kd: > 4 mM (inactive)

SMILES: NCc1ccc(CN2CCOCC2)cc1
- Kd: > 4 mM (inactive)

SMILES: O=c1n(-c2ccccc2)c(=O)n2n1CCCC2
- Kd: > 4 mM (inactive)

SMILES: NC(=O)c1cc(N)ccc1N1CCCCC1
- Kd: > 4 mM (inactive)

SMILES: COc1ccc(/C=C2/C(=O)N=C(N)N2C)cc1OC
- Kd: > 4 mM (inactive)

SMILES: CN1CN/C(=N\[N+](=O)[O-])N(c2ccccc2)C1
- Kd: > 4 mM (inactive)

SMILES: O=C(Nc1ccccc1F)c1ccncc1
- Kd: > 4 mM (inactive)

SMILES: Cc1cc(C)nc(/N=C(\N)N2CCc3ccccc32)n1
- Kd: > 4 mM (inactive)

SMILES: COC(=O)NNc1ncnc(N)c1[N+](=O)[O-]
- Kd: > 4 mM (inactive)

SMILES: COC(=O)Cc1csc(N)n1
- Kd: > 4 mM (inactive)

SMILES: CCn1nnnc1Oc1ccc(Cl)cc1
- Kd: > 4 mM (inactive)

SMILES: CC(C)(C#N)O[C@@H]1O[C@H](CO)[C@@H](O)[C@H](O)[C@H]1O
- Kd: > 4 mM (inactive)

SMILES: CC(C)CCCC1(C)C=Cc2c(O)c3c(c(CCC(C)C)c2O1)OC12C(CC4CC1C(C)(C)OC2(CCC(C)C(=O)O)C4O)C3=O (stereo not given)
- Kd: > 4 mM (inactive)

SMILES: O=[N+]([O-])c1cccc(-c2nnco2)c1
- Kd: > 4 mM (inactive)

SMILES: OC1(c2ccc(Cl)cc2)CCNCC1
- Kd: > 4 mM (inactive)

SMILES: CC(C)CCCC(C)[C@H]1CCC2C3CC=C4CC(=O)CC[C@]4(C)C3CC[C@@]21C (stereo not given in full)
- Kd: > 4 mM (inactive)

SMILES: CS(=O)(=O)NN=C1CCCCC1
- Kd: > 4 mM (inactive)

SMILES: CCC(=O)OC1[C@@H]2CC3=C4CC(=O)O[C@@H](c5ccoc5)[C@]4(C)CCC3C(C)(C2=O)[C@@H](CC(=O)OC)C1(C)C (stereo not given in full)
- Kd: > 4 mM (inactive)

SMILES: Nc1cccc(NC(=O)c2cccs2)c1
- Kd: > 4 mM (inactive)

SMILES: COC(=O)C(O)[C@@H]1C2(C)C(=O)[C@@H](CC3=C4CC(=O)O[C@@H](c5ccoc5)[C@]4(C)CCC32)[C@H](OC(C)=O)C1(C)C (stereo not given in full)
- Kd: > 4 mM (inactive)

SMILES: O=C(Nc1ccc(Cl)cc1)N1CCCC1
- Kd: > 4 mM (inactive)

SMILES: OCc1ccc(-n2ccnc2)cc1
- Kd: > 4 mM (inactive)

SMILES: O=C(O)c1ccc(-n2cncn2)cc1
- Kd: > 4 mM (inactive)

SMILES: CC(=O)Nc1nnc(-c2ccccc2)o1
- Kd: > 4 mM (inactive)

SMILES: O=C1NC(=S)NC(=O)C1=Cc1ccco1
- Kd: > 4 mM (inactive)

SMILES: COc1ccc(S(=O)(=O)Nc2ccccn2)c(C)c1C
- Kd: > 4 mM (inactive)

SMILES: CC(=O)O[C@@H]1CC2C(C)(C)C(=O)C3OC3[C@]2(C)C2CC[C@@]3(C)[C@H](c4ccoc4)OC(=O)C4OC43[C@@]21C (stereo not given in full)
- Kd: > 4 mM (inactive)

SMILES: Fc1ccc(-c2n[nH]c(=S)n2CC2CCCO2)cc1 (stereo not given)
- Kd: > 4 mM (inactive)

SMILES: NS(=O)(=O)c1ccc(N=Cc2ccc[nH]2)cc1
- Kd: > 4 mM (inactive)

SMILES: CC1(C)N=C2C(=N)C=CC=C2N1O
- Kd: > 4 mM (inactive)

SMILES: Cc1cc(N)ccc1NC(=O)c1ccco1
- Kd: > 4 mM (inactive)

SMILES: O=C(Nc1nnc(-c2ccco2)o1)c1ccc([N+](=O)[O-])o1
- Kd: > 4 mM (inactive)

SMILES: Cc1ccc(N2C(=O)CC(=O)NC2=O)cc1
- Kd: > 4 mM (inactive)

SMILES: CC(=O)OC1CCC2(C)C(=CC=C3C2CCC2(C)C3CCC2C(C)/C=C/C(C)C(C)C)C1(C)C (stereo not given)
- Kd: > 4 mM (inactive)

SMILES: Cc1ncc(CC(=O)O)s1
- Kd: > 4 mM (inactive)

SMILES: CC(=O)N1CC2(C)CN(C(C)=O)CC(C)(C1)C2
- Kd: > 4 mM (inactive)

SMILES: C[C@H]1C(=O)O[C@@H]2CCN3CC=C(COC(=O)[C@](C)(O)[C@]1(C)O)[C@H]23
- Kd: > 4 mM (inactive)

SMILES: Cc1cccc(NC(=O)c2ccc(=O)[nH]n2)c1
- Kd: > 4 mM (inactive)

SMILES: O=C(O)c1ccc(-n2ccnc2)cc1
- Kd: > 4 mM (inactive)

SMILES: COC(=O)c1cccc2cc[nH]c12
- Kd: > 4 mM (inactive)

SMILES: O=C(O)C12CC3CC(CC(O)(C3)C1)C2
- Kd: > 4 mM (inactive)

SMILES: NS(=O)(=O)c1ccc(N=C2NC(=O)CS2)cc1
- Kd: > 4 mM (inactive)

SMILES: CC(=O)NC12CC3CC(C)(C1)CC(NC(C)=O)(C3)C2
- Kd: > 4 mM (inactive)

SMILES: Cc1nnsc1-c1onc(C)c1C(=O)O
- Kd: > 4 mM (inactive)

SMILES: OCC1COc2ccccc2C1 (stereo not given)
- Kd: > 4 mM (inactive)

SMILES: CC(C)CCCC(C)C1CCC2C3C[C@@H](O)[C@@]4(O)C[C@@H](O)CC[C@]4(C)C3CC[C@]12C (stereo not given in full)
- Kd: > 4 mM (inactive)

SMILES: Cc1noc(-c2ccccc2)c1C(=O)O
- Kd: > 4 mM (inactive)

SMILES: Cc1ccccc1NC(=S)NCCO
- Kd: > 4 mM (inactive)

SMILES: CC(=O)NC1(NC(C)=O)CCN(C)CC1
- Kd: > 4 mM (inactive)

Reference: PubChem BioAssay AID1033 (Sanford-Burnham Center for Chemical Genomics, 2008)
